Measurements: ChEMBL document CHEMBL5257152, “Antiproliferative activity and toxicity evaluation of 1,2,3-triazole and 4-methyl coumarin hybrids in the MCF7 breast cancer cell line” (RSC Med Chem, 2023)
Activity calls are given as the source filed them. No cut-off for these calls is given here.

Legend:
[1] = Selectivity index, ratio of IC50 for mouse 3T3 cells to IC50 for human HepG2 cells; format: toxicity; settings: 3T3 cells and HepG2 cells, read-out: Ratio IC50
MCF7 [2] = assay: Cytotoxicity against human MCF7 cells assessed as reduction in cell viability measured after 24 hrs; format: functional, cell-based; settings: MCF7, 24 h
[3] = Selectivity index, ratio of IC50 for mouse 3T3 cells to IC50 for human OVCAR cells
NIH3T3 [4] = assay: Induction of apoptosis in mouse 3T3 cells assessed as increase in necrotic cells at 0.1 to 1 microM incubated for 24 hrs by Annexin V/PI staining based fluorescence microscopic analysis; format: toxicity, cell-based; settings: nih3t3, 24 h, dose 0.1-1 µM
[5] = Selectivity index, ratio of IC50 for mouse 3T3 cells to IC50 for human MCF7 cells; format: toxicity; settings: 3T3 cells and MCF7 cells, read-out: Ratio IC50
[6] = Cytotoxicity against mouse 3T3 cells assessed as reduction in cell viability measured after 24 hrs; format: toxicity, cell-based; settings: NIH3T3 cells
J774.A1 = assay: Cytotoxicity against mouse J774.A1 cells assessed as reduction in cell viability measured after 24 hrs; format: functional, cell-based; settings: J774.A1, 24 h
HepG2 = assay: Cytotoxicity against human HepG2 cells assessed as reduction in cell viability measured after 24 hrs; format: functional, cell-based; settings: HepG2, 24 h
[7] = Selectivity index, ratio of IC50 for mouse 3T3 cells to IC50 for mouse J774.A1 cells
[8] = Genotoxicity in mouse 3T3 cells assessed as primary DNA damage at 0.1 to 5 microM incubated for 24 hrs by comet assay; format: toxicity, cell-based; settings: nih3t3, 24 h, dose 0.1-5 µM
NIH3T3 [9] = assay: Induction of apoptosis in mouse 3T3 cells assessed as increase in early apoptotic cells at 0.1 to 1 microM incubated for 24 hrs by Annexin V/PI staining based fluorescence microscopic analysis; format: toxicity, cell-based; settings: nih3t3, 24 h, dose 0.1-1 µM
A549 = assay: Cytotoxicity against human A549 cells assessed as reduction in cell viability measured after 24 hrs; format: functional, cell-based; settings: A549, 24 h
[10] = Selectivity index, ratio of IC50 for mouse 3T3 cells to IC50 for human SiHa cells; format: toxicity; settings: 3T3 cells and SiHa cells, read-out: Ratio IC50
NIH3T3 [11] = assay: Disruption of mitochondrial membrane potential in mouse 3T3 cells at 0.1 to 5 uM incubated for 24 hrs by […] inclusion assay; format: toxicity, cell-based; settings: nih3t3, 24 h, dose 0.1-5 µM
[12] = Cytotoxicity against human OVCAR cells assessed as reduction in cell viability measured after 24 hrs; format: functional, cell-based
[13] = Genotoxicity in mouse 3T3 cells assessed as cell death at 0.1 to 5 microM incubated for 24 hrs by LMW comet assay; format: toxicity, cell-based; settings: nih3t3, 24 h, dose 0.1-5 µM
NIH3T3 [14] = assay: Antioxidant activity in mouse 3T3 cells assessed as reduction in ROS level at 0.1 to 5 uM incubated for 24 hrs by DCFH-DA dye based fluorescence microplate reader analysis; format: functional, cell-based; settings: dose 0.1-5 µM
[15] = Selectivity index, ratio of IC50 for mouse 3T3 cells to IC50 for human A549 cells; format: toxicity; settings: 3T3 cells and A549 cells, read-out: Ratio IC50
SiHa = assay: Cytotoxicity against human SiHa cells assessed as reduction in cell viability measured after 24 hrs; format: functional, cell-based
MCF7 [16] = assay: Potency index, ratio of hymecromone IC50 to test compound IC50 for cytotoxicity against human MCF7 cells assessed as reduction in cell viability measured after 24 hrs; format: functional
NIH3T3 [17] = assay: Cytotoxicity against mouse 3T3 cells assessed as reduction in cell viability at 40 uM measured after 24 hrs relative to control; format: toxicity, cell-based; settings: nih3t3, 24 h
[18] = Selectivity index, ratio of IC50 for mouse 3T3 cells to IC50 for mouse RAW264.7 cells
RAW264.7 = assay: Cytotoxicity against mouse RAW264.7 cells assessed as reduction in cell viability measured after 24 hrs; format: functional, cell-based; settings: RAW264.7, 24 h
NIH3T3 [19] = assay: Induction of apoptosis in mouse 3T3 cells assessed as increase in late apoptotic cells at 1 microM incubated for 24 hrs by Annexin V/PI staining based fluorescence microscopic analysis; format: toxicity, cell-based; settings: nih3t3, 24 h
[20] = Antioxidant activity assessed as DPPH radical scavenging activity measured at 50 to 600 sec by spectrophotometric analysis; format: functional

| Ratio IC50 [3] | Ratio IC50 [7] | SMILES | selectivity ratio [1] | IC50 (MCF7 [2]) [µM] | Activity (NIH3T3 [4]) | selectivity ratio [5] | IC50 at 24 h [6] [µM] | IC50 (J774.A1) [µM] | IC50 (HepG2) [µM] | Activity [8] | Activity (NIH3T3 [9]) | IC50 (A549) [µM] | selectivity ratio [10] | Activity (NIH3T3 [11]) | IC50 [12] [µM] | Activity [13] | Activity (NIH3T3 [14]) | selectivity ratio [15] | IC50 (SiHa) [µM] | Ratio IC50 (MCF7 [16]) | also measured |
| --- | --- | --- | --- | --- | --- | --- | --- | --- | --- | --- | --- | --- | --- | --- | --- | --- | --- | --- | --- | --- | --- |
| 0.021 | 0.171 | Cc1cc(=O)oc2cc(O)ccc12 [HYMECROMONE] | 0.161 | 54.8 | Non-Toxic | 0.438 | 24 | > 100 | > 100 | Non-Toxic | Toxic | > 100 | 0.011 | Non-Toxic | > 100 | Non-Toxic | Active | 0.155 | > 100 |  |  |
| 0.012 | 0.001 | Cc1cc(=O)oc2cc(OCCn3cc(COc4cccc5c(C)cc(=O)oc45)nn3)ccc12 | 0.221 | 5.04 | Non-Toxic | > 7.93 | > 40 | > 100 | 88.3 | Non-Toxic | Toxic | > 100 | 0.001 | Toxic | > 100 | Non-Toxic | Active | 0.175 | > 100 | 5 | Activity (NIH3T3 [17]): Non-Toxic; Ratio IC50 [18]: 2.33; IC50 (RAW264.7): 8.37 µM |
| 0.004 | 0.072 | Cc1cc(=O)oc2cc(OCCn3cc(-c4ccccc4)nn3)ccc12 | 0.014 | 2.85 | Non-Toxic | 0.845 | 2.41 | 33 | > 100 | Non-Toxic | Toxic | > 100 | < 0.001 | Toxic | > 100 | Non-Toxic | inactive | 0.007 | > 100 | 5 | Activity (NIH3T3 [19]): Toxic |
| < 0.001 | 0.037 | Cc1cc(=O)oc2cc(OCCn3cc(CO)nn3)ccc12 | 0.031 | 10.1 | Non-Toxic | 0.516 | 5.21 | > 100 | > 100 | Non-Toxic | Toxic | > 100 | 0.002 | Non-Toxic | > 100 | Non-Toxic | Active | 0.017 | > 100 | 5 | Ratio IC50 [18]: 0.025; IC50 (RAW264.7): 5.08 µM |
|  |  | Cc1cc(=O)oc2cc(OCCn3cc(CCN4C(=O)c5ccccc5C4=O)nn3)ccc12 | 0.007 | 2.66 | Non-Toxic | 0.233 | 0.62 | 39.5 | 87.6 | Non-Toxic | Toxic | 80.8 | < 0.001 | Toxic | 91.3 | Non-Toxic | inactive | 0.007 | > 100 | 5 |  |
|  |  | Cc1cc(=O)oc2c(O)c(O)cc(C(=O)O)c12 |  |  |  |  |  |  |  |  |  |  |  |  |  |  |  |  |  |  | IC50 [20]: 17.5 µM |
|  |  | O=c1ccc2cc(O)c(O)cc2o1 [ESCULETIN] |  |  |  |  |  |  |  |  |  |  |  |  |  |  |  |  |  |  | IC50 [20]: 25.2 µM |
|  |  | Cc1cc(=O)oc2c(O)c(O)ccc12 [4-METHYLDAPHNETIN] |  |  |  |  |  |  |  |  |  |  |  |  |  |  |  |  |  |  | IC50 [20]: 33.5 µM |
